This passage reports bioavailability and EC50 results from ChEMBL document CHEMBL1129228, “Naphtho-fused azepines as potent growth hormone secretagogues” (Bioorg Med Chem Lett, 1997).

pEC50: −log10 of the molar value. Square brackets hold non-standard residues; d marks the D form. Peptide text beside a SMILES is read from it. ξ: configuration not given here. 1Nal = N[C@@H](Cc1cccc2ccccc12)C(=O)O; ξ1Nal = NC(Cc1cccc2ccccc12)C(=O)O; 3Amb = NCc1cccc(C(=O)O)c1 Some results are limits rather than exact numbers.

Tested on in one data set: not listed separately
The data set can be described thus: Oral bioavailability determined in rats. The conditions noted are these: rat, in vivo. The data set is classed as ADME, organism-based.
By bioavailability is commonly meant dose-corrected exposure relative to a reference, in per cent. Read a high bioavailability as much systemic uptake. `CC(C)(N)CC(=O)N[C@@H]1CCc2c(ccc3ccccc23)N(Cc2ccc(-c3ccccc3-c3nn[nH]n3)cc2)C1=O` displayed a bioavailability of less than 5%.

For a further data set, the species on record is Rattus norvegicus. The data set can be described thus: Compound was evaluated for its potency using rat pituitary cell assay. The data set is classed as functional. The conditions noted are these: Pituitary gland cell, read-out: ED50 (the source's name).
In the case of `Cc1nnc(-c2cscc2-c2ccc(CN3C(=O)[C@H](NC(=O)CC(C)(C)N)CCc4ccccc43)cc2)o1`, the pEC50 is 7.21.
With `CC(C)(N)CC(=O)N[C@@H]1CCc2c(ccc3ccccc23)N(Cc2ccc(-c3ccccc3-c3nn[nH]n3)cc2)C1=O`, the pEC50 is 8.40.
The same measure, in the same setting: the result for `C[C@H](N)C(=O)N[C@@H](Cc1ccccc1)C(=O)N[C@@H](Cc1cccc2ccccc12)C(=O)N[C@@H](Cc1ccccc1)C(=O)N[C@@H](CCCCN)C(N)=O` (H-AF[1Nal]FK-NH2) reads 8.70.
Turning to `CC(C)(N)CC(=O)N[C@@H]1CCc2c(ccc3ccccc23)N(Cc2ccccc2)C1=O`, the pEC50 is 5.07.
On the same count and under the same terms, the same measure for `CC(C)(N)CC(=O)N[C@@H]1CCc2ccccc2N(Cc2ccc(-c3ccccc3)cc2)C1=O`: 5.77; for `NC1(C(=O)N[C@@H]2CCc3c(ccc4ccccc34)N(Cc3ccc(-c4ccccc4-c4nn[nH]n4)cc3)C2=O)CC1`: 6.76.
Take `CC(C)(N)C(=O)N[C@@H]1CCc2ccccc2N(Cc2ccc(-c3ccccc3-c3nn[nH]n3)cc2)C1=O`: the pEC50 was 7.52.
With `NCCCC[C@H](NC(=O)[C@H](Cc1ccccc1)NC(=O)C(Cc1cccc2ccccc12)NC(=O)c1cccc(CN)c1)C(N)=O` (some centres not stated) (H-[3Amb][ξ1Nal]FK-NH2), the pEC50 is 8.15.
For `CC(C)(N)CC(=O)N[C@@H]1CCc2ccccc2N(Cc2ccc(-c3ccccc3-c3nn[nH]n3)cc2)C1=O`, the pEC50 is 6.90.
As for `Cc1nnc(-c2cscc2-c2ccc(CN3C(=O)[C@H](NC(=O)CC(C)(C)N)CCc4c3ccc3ccccc43)cc2)o1`, the pEC50 was 7.43.
Same read-out and setting: the same measure for `CC(C)(N)CC(=O)N[C@@H]1CCc2ccccc2N(Cc2ccccc2)C1=O`: 6.00.
